According to patent US9783537B2, “3-(4-ethylnylphenyl) pyridopyrimidinone compounds and process for preparation thereof useful as potential anticancer agents” (Council of Scientific & Industrial Research, priority 2013, dated 2017):
Like-named read-outs stand apart in the source and are kept apart here.

How the values were obtained:
A498 = assay: SRB 48 h growth assay, Renal A498; type: cell-based, human
NCI-H226 = assay: SRB 48 h growth assay, Non-small Cell Lung NCI-H226; type: cell-based, human; details: Homo sapiens
[1] = test system: seven ovarian cancer cell lines (IGROV1, OVCAR-3, OVCAR-4, OVCAR-5, OVCAR-8, NCI/ADR-RES and SK-OV-3); assay: in vitro anticancer activity, ovarian panel; type: cell-based; details: Homo sapiens, exposure at least 48 h, read-out: GI50, range over panel
SR = assay: SRB 48 h growth assay, Leukemia SR; type: cell-based, human
NCI-H460 = assay: SRB 48 h growth assay, Non-small Cell Lung NCI-H460; type: cell-based, human
HOP-62 = assay: SRB 48 h growth assay, Non-small Cell Lung HOP-62; type: cell-based, human; details: HOP-62, Non-small Cell Lung
[2] = test system: six breast cancer cell line (MCF-7, MDA-MB-231/ATCC, HS 578T, TD-47D, MDA-MB-468 and BT-549); assay: in vitro anticancer activity, breast panel; type: cell-based; details: Homo sapiens; six breast cancer cell lines, exposure at least 48 h; read-out: GI50, range over panel
U251 = assay: SRB 48 h growth assay, CNS U251; type: cell-based, human
ACHN = assay: SRB 48 h growth assay, Renal ACHN; type: cell-based, human
T-47D = assay: SRB 48 h growth assay, Breast T-47D; type: cell-based, human
NCI-H322M = assay: SRB 48 h growth assay, Non-small Cell Lung NCI-H322M; type: cell-based, human
SK-MEL-2 = assay: SRB 48 h growth assay, Melanoma SK-MEL-2; type: cell-based, human; details: SK-MEL-2, Melanoma
HOP-92 = assay: SRB 48 h growth assay, Non-small Cell Lung HOP-92; type: cell-based, human; details: HOP-92, Non-small Cell Lung
NCI/ADR-RES = assay: SRB 48 h growth assay, Ovarian NCI/ADR-RES; type: cell-based, human
DU-145 = assay: SRB 48 h growth assay, Prostate DU-145; type: cell-based, human; details: DU-145, Prostate
MDA-MB-468 = assay: SRB 48 h growth assay, Breast MDA-MB-468; type: cell-based, human; details: MDA-MB-468, Breast
[3] = test system: seven colon cancer cell line (COLO 205, HCC-2998, HCT-116, HCT-15, HT29, KM12 and SW-620); assay: in vitro anticancer activity, colon panel; type: cell-based; details: Homo sapiens; seven colon cancer cell lines, exposure at least 48 h; read-out: GI50, range over panel
SK-OV-3 = assay: SRB 48 h growth assay, Ovarian SK-OV-3; type: cell-based, human; details: SK-OV-3, Ovarian
IGROV1 = assay: SRB 48 h growth assay, Ovarian IGROV1; type: cell-based, human
786-0 = assay: SRB 48 h growth assay, Renal 786-0; type: cell-based, human; details: 786-0, Renal
OVCAR-3 = assay: SRB 48 h growth assay, Ovarian OVCAR-3; type: cell-based, human; details: Homo sapiens, OVCAR-3, Ovarian
OVCAR-4 = assay: SRB 48 h growth assay, Ovarian OVCAR-4; type: cell-based, human; details: OVCAR-4, Ovarian
UACC-257 = assay: SRB 48 h growth assay, Melanoma UACC-257; type: cell-based, human; details: Homo sapiens, UACC-257, Melanoma
[4] = test system: six CNS cancer cell line (SF-268, SF-295, SF-539, SNB-19, SNB-75 and U251); assay: in vitro anticancer activity, CNS panel; type: cell-based; details: Homo sapiens; six CNS cancer cell lines, exposure at least 48 h; read-out: GI50, range over panel
[5] = test system: eight renal cancer cell line (786-0, A498, ACHN, CAKI-1, SN12C, TK-10, UO-31 and RXF 393); assay: in vitro anticancer activity, renal panel; type: cell-based; details: Homo sapiens; eight renal cancer cell lines, exposure at least 48 h; read-out: in vitro anticancer activity, range over panel
K-562 = assay: SRB 48 h growth assay, Leukemia K-562; type: cell-based, human
[6] = Homo sapiens, read-out: Growth Inhibition GI50
[7] = Homo sapiens, read-out: Log10 GI50 (converted)
[8] = Homo sapiens, read-out: Log10 LC50 (converted)
[9] = read-out: Growth Inhibition GI50
[10] = read-out: Log10 GI50 (converted)

C#Cc1ccc(-n2c(/C=C/c3ccc4ccccc4c3)nc3ncccc3c2=O)cc1 [4s, (E)-3-(4-Ethynylphenyl)-2-(2-(naphthalen-2-yl)vinyl)pyrido[2,3-d]pyrimidin-4(3H)-one]
Log10 TGI50 (A498): −5.23 | GI50 (A498; [6]): 1690 nM | GI50 (A498; [7]): 1700 nM | CC50 (A498; [8]): 5890 nM | GI50 (NCI-H226; [9]): 2330 nM | GI50 (NCI-H226; [10]): 2340 nM | GI50 [1]: 300 to 400 nM | Log10 TGI50 (SR): >−4.00 | GI50 (SR; [6]): 1400 nM | GI50 (SR; [7]): 1410 nM | CC50 (SR; [8]): > 100000 nM | Log10 TGI50 (NCI-H460): >−4.00 | GI50 (NCI-H460; [6]): 2880 nM | GI50 (NCI-H460; [7]): 2880 nM | LC50 (NCI-H460; [8]): > 100000 nM | Log10 TGI50 (HOP-62): >−4.00 | GI50 (HOP-62; [6]): 7450 nM | GI50 (HOP-62; [7]): 7410 nM | CC50 (HOP-62; [8]): > 100000 nM | GI50 [2]: 230 to 350 nM | Log10 TGI50 (U251): >−4.00 | GI50 (U251; Homo sapiens, U-251, read-out: Growth Inhibition GI50): 3690 nM | GI50 (U251; Homo sapiens, U-251, read-out: Log10 GI50 (converted)): 3720 nM | CC50 (U251; Homo sapiens, U-251, read-out: Log10 LC50 (converted)): > 100000 nM | Log10 TGI50 (ACHN): >−4.00 | GI50 (ACHN; [6]): 2570 nM | GI50 (ACHN; [7]): 2570 nM | CC50 (ACHN; [8]): > 100000 nM | Log10 TGI50 (T-47D): >−4.00 | GI50 (T-47D; Homo sapiens, T47D, read-out: Growth Inhibition GI50): 3900 nM | GI50 (T-47D; Homo sapiens, T47D, read-out: Log10 GI50 (converted)): 3890 nM | CC50 (T-47D; Homo sapiens, T47D, read-out: Log10 LC50 (converted)): > 100000 nM | Log10 TGI50 (NCI-H322M): >−4.00 | GI50 (NCI-H322M; [6]): 7300 nM | GI50 (NCI-H322M; [7]): 7240 nM | CC50 (NCI-H322M; [8]): > 100000 nM | GI50 (SK-MEL-2; [6]): 2410 nM | GI50 (SK-MEL-2; [7]): 2400 nM | CC50 (SK-MEL-2; [8]): 6170 nM | Log10 TGI50 (SK-MEL-2): −5.21 | Log10 TGI50 (HOP-92): −5.16 | GI50 (HOP-92; [6]): 1630 nM | GI50 (HOP-92; [7]): 1620 nM | CC50 (HOP-92; [8]): 6920 nM | Log10 TGI50 (NCI/ADR-RES): >−4.00 | GI50 (NCI/ADR-RES; [6]): 3290 nM | GI50 (NCI/ADR-RES; [7]): 3310 nM | CC50 (NCI/ADR-RES; [8]): > 100000 nM | Log10 TGI50 (DU-145): >−4.00 | GI50 (DU-145; [6]): 7450 nM | GI50 (DU-145; [7]): 7410 nM | CC50 (DU-145; [8]): > 100000 nM | GI50 (MDA-MB-468; [6]): 960 nM | GI50 (MDA-MB-468; [7]): 955 nM | CC50 (MDA-MB-468; [8]): 7760 nM | Log10 TGI50 (MDA-MB-468): −5.11 | GI50 [3]: 300 to 360 nM | GI50 (SK-OV-3; [6]): 7550 nM | GI50 (SK-OV-3; [7]): 7590 nM | CC50 (SK-OV-3; [8]): > 100000 nM | Log10 TGI50 (SK-OV-3): >−4.00 | Log10 TGI50 (IGROV1): >−4.00 | GI50 (IGROV1; Homo sapiens, IGROV-1, read-out: Growth Inhibition GI50): 2920 nM | GI50 (IGROV1; Homo sapiens, IGROV-1, read-out: Log10 GI50 (converted)): 2950 nM | CC50 (IGROV1; Homo sapiens, IGROV-1, read-out: Log10 LC50 (converted)): > 100000 nM | Log10 TGI50 (786-0): >−4.00 | GI50 (786-0; [6]): 4080 nM | GI50 (786-0; [7]): 4070 nM | CC50 (786-0; [8]): > 100000 nM | GI50 (OVCAR-3; [9]): 2040 nM | GI50 (OVCAR-3; [10]): 2040 nM | GI50 (OVCAR-4; [6]): 1950 nM | GI50 (OVCAR-4; [7]): 1950 nM | CC50 (OVCAR-4; [8]): > 100000 nM | Log10 TGI50 (OVCAR-4): >−4.00 | GI50 (UACC-257; [9]): 2110 nM | GI50 (UACC-257; [10]): 2090 nM | GI50 [4]: 200 to 720 nM | GI50 [5]: 220 to 430 nM | GI50 (K-562; Homo sapiens, K562, K-562, Leukemia, read-out: Growth Inhibition GI50): 2430 nM | GI50 (K-562; Homo sapiens, K562, K-562, Leukemia, read-out: Log10 GI50 (converted)): 2450 nM | CC50 (K-562; Homo sapiens, K562, K-562, Leukemia, read-out: Log10 LC50 (converted)): > 100000 nM | Log10 TGI50 (K-562; K-562, Leukemia): ->−4.00
